{
  "source": "patent US20120053235A1",
  "about": "“Dihydromyricetin as an IKK-beta inhibitor used for treatment of arthritis, cancer and autoimmune conditions, and other diseases or disorders” (HONG KONG BAPTIST UNIVERSITY, priority 2010, published 2012)",
  "key": {"ICR mice": {"test_system": "ICR mice", "conditions": "mouse, in vivo", "protocol": "ICR (Imprinting Control Region) mice (both male and female) were purchased from the Laboratory Animal Services Center, the Chinese University of Hong Kong, Hong Kong. At the beginning of the study, one mouse was given orally with DMY at a dose of 2,000 mg/kg of mouse after fasting for 12 hours. The mouse had free access to water and after 2 hours, it was supplied with chow diet. Signs of toxicosis, onset of signs, and time to death of the mouse were monitored and recorded. Results of the initial exposure were used to select the subsequent dose of DMY, using the up-and-down method to estimate the lethal dose. […] If all the mice stayed alive, a higher dose of DMY was given to another three mice. All the mice were monitored continuously for two hours, every half hour for the next 5 hours, and at least every 10 hours until the 72nd hour of the study. Mice that died were immediately undergone autopsy. Mice remaining alive for 14 days upon study were sacrificed with an overdose pentobarbital."}, "JNK phosphorylation": {"test_system": "JNK phosphorylation", "experiment": "Phosphorylation of MAPKs (Western blot): JNK", "assay_type": "cell-based, human", "conditions": "PMA plus ionomycin 10 minutes; FIG. 7", "protocol": "(§1) For determination of the phosphorylation of mitogen-activated protein kinases expression, the cells were stimulated by 20 ng/ml PMA plus […] ionomycin for 10 minutes. The whole-cell lysates were prepared by lysing the harvested T cells with lysis buffer (50 mM Tris-HCl, pH 7.5, 250 mM NaCl, 5 mM EDTA, 1 mM DTT, 1% Triton, 50 mM NaF, 1 mM sodium orthovanadate, 0.5 mM PMSF and 1× protease inhibitor mix, Roche).\n(§2) Protein concentrations were determined by using Bio-Rad Protein assay. Equal amounts of nuclear proteins or whole-cell lysates were analyzed by 10% SDS-PAGE. After electrophoresis, the proteins were electro-transferred to the nitrocellulose membranes. After proteins were transferred, the membranes were blocked by 5% dried milk for 60 minutes and then washed three times for 5 min in each washing interval with TBS-T. The membranes were incubated with corresponding primary antibodies overnight at 4° C. and then washed with three times with TBS-T. Afterwards, the membranes were incubated again with HRP-conjugated secondary antibodies for 60 minutes. The blots were developed using the ECL."}, "[1]": {"test_system": "collagen II induced arthritis in female Wistar rats", "experiment": "Collagen II induced arthritis (CIA)", "assay_type": "in vivo", "protocol": "Collagen II solution (collagen, 2 mg/ml in 0.05M acetic acid, Chondrex 20022, Redmond, Wash., USA) was emulsified with an equal volume of incomplete Freund's adjuvant (IFA, Chondrex 7002, Redmond, Wash., USA) at 4° C. using a high-speed homogenizer. In the experiment of CIA, DMY was encapsulated with HP-CD (1:8.48) and then dissolved in the normal saline with drug concentrations of 50 and 100 mg/kg body weight. Rats were intradermally injected at the base of the tail with 100 μl collagen/incomplete Freund's adjuvant (IFA) emulsion containing […] of collagen II by the use of a glass syringe equipped with a locking hub and a 27-G needle. On day 7 after the primary immunization, all the rats were given a booster injection of 100 μg of collagen II in IFA. On the day after the onset of arthritis (day 13), the CIA rats were exposed to a daily intraperitoneal administration of DMY (50 and 100 mg/kg) until day 30 of the study. DEX (0.1 mg/kg, one per day), MTX (3.75 mg/kg, twice per week), and indomethacin (1 mg/kg, one per day) were used as positive reference drugs. The rats were inspected daily from the onset of arthritis characterized by edema and/or erythema in the paws. The incidence and severity of arthritis were evaluated using an arthritic scoring system, and bi-hind paw volumes and body weight were measured every 2 days started on the day when the arthritic signs were firstly visible (day 13). In the arthritic scoring system, lesions (i.e., the clinical arthritic signs) of the four paws of each rat were graded from 0 to 4 according to the extent of both edema and erythema of the periarticular tissues. As such, 16 was the potential maximum of the combined arthritic scores per animal. The hind paw volumes were measured using a plethysmometer chamber (7140 UGO. Basile, Comerio, Italy) and expressed as the mean volume change of both hind paws of the rats. Body weight of the rats was monitored with a 0.1 g precision balance (Sartorius AG, Goettingen, Germany). On day 30, all rats were sacrificed with liver, spleen and thymus being collected and weighted. The organ index for a specific organ is equal to the ratio of the weight of that organ to a body weight of 100 g."}, "human recombinant IKK-β": {"target": "T1, human recombinant IKK-β (Homo sapiens, UniProt O14920)", "T1 sequence (O14920 1-756)": "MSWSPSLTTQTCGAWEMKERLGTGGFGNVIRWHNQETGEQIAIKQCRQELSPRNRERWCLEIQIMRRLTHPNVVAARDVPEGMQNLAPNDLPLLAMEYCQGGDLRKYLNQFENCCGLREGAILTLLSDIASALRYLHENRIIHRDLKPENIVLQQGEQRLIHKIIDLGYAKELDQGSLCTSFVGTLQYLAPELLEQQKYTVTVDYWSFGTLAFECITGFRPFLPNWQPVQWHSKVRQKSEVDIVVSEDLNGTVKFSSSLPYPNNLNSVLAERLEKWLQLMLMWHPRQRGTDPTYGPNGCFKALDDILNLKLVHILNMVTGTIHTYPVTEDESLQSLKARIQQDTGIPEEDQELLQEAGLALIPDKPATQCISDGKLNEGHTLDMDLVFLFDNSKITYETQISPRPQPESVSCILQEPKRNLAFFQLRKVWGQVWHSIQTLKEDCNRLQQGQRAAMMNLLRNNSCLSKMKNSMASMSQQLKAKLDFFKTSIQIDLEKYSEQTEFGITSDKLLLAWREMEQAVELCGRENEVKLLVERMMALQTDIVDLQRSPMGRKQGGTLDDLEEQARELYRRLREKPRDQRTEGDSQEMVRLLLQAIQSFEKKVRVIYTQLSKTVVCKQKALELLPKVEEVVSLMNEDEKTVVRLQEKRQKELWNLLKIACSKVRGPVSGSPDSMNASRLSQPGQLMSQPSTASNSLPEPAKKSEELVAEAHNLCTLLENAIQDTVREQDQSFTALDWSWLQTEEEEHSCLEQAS", "experiment": "IKK-β competition assay (dot blot with biotin-DMY)", "assay_type": "binding", "conditions": "100 μM biotin-DMY, 0, 1 and 5 folds of parental compound; FIG. 5A", "protocol": "5 ng of human recombinant IKK-β was incubated with 100 μM of the biotin-DMY in the presence of 0, 1, and 5 folds of concentration of its parental compound. The mixture was dropped on the nitrocellulose membranes, and then detected with streptavidin horseradish peroxidase. The binding signal was then detected by using ECL."}, "[2]": {"test_system": "p38 kinase phosphorylation", "experiment": "Phosphorylation of MAPKs (Western blot): p38", "assay_type": "cell-based, human", "conditions": "PMA plus ionomycin 10 minutes; FIG. 7", "protocol": "as §1, §2"}, "[3]": {"conditions": "CIA rats, daily intraperitoneal 50 and 100 mg/kg, day 13 to day 30, vs vehicle-treated, FIGS. 10A and B"}},
  "data": [
    {"smiles": "O=C1c2c(O)cc(O)cc2O[C@H](c2cc(O)c(O)c(O)c2)[C@H]1O", "note": "[DMY, dihydromyricetin]", "values": [
      {"measurement": "acute oral LD50", "setting": "ICR mice", "value": "greater than 5,000 mg/kg body weight"},
      {"measurement": "JNK phosphorylation", "setting": "JNK phosphorylation", "value": "suppressed"},
      {"measurement": "ameliorative effect compared with MTX", "setting": "[1]; CIA rats, DMY 100 mg/kg, MTX 3.75 mg/kg twice per week", "value": "better than that of MTX"},
      {"measurement": "arthritic scores", "setting": "[1]; [3]", "value": "significantly reduced"},
      {"measurement": "hind paw volume", "setting": "[1]; [3]", "value": "significantly reduced"},
      {"measurement": "organ indexes of spleen and/or thymus", "setting": "[1]; rat, in vivo", "value": "no adverse effect"},
      {"measurement": "competition with biotin-DMY for binding to IKK-β", "setting": "human recombinant IKK-β", "value": "can compete with biotin-DMY"},
      {"measurement": "p38 kinase phosphorylation", "setting": "[2]", "value": "suppressed"}
    ]}
  ]
}
